Columns and labels:
[1] = system: Salmonella Typhimurium ATCC 13311; test: Decontamination of inoculated chicken filets, surviving counts; type: cell-based
Procedure: Salmonella Typhimurium ATCC 13311 and Escherichia coli O157:H7 ATCC 700728 were grown in sterile screw capped tubes containing Brain heart infusion broth for 18-24 hours at 30° C.
Chicken filets (150-200 g) were trimmed, vacuum packaged and stored at 4-7° C. Filets were subsequently sterilized by gamma-irradiation (average radiation dose: 12 kiloGray).
1 ml of an overnight culture of Salmonella Typhimurium in brain heart infusion both was diluted 1000 times with sterile 0.8% (w/v) NaCl and 0.1% (w/v) peptone. 0.5 ml of this diluted culture was transferred to one side of the filet. The inoculum was distributed by gently rubbing the entire surface of the filet. This was repeated for the other side of the filet. Inoculation was carried out at 6° C. Inoculated filets were rested for 60-120 min at 6° C. to allow attachment of the cells.
Chicken filets were briefly dipped and completely submersed in 1 l of a solution containing the appropriate formulation and then transferred to 400 ml Bagfilter® lateral filter bags (Interscience, St Nom, France) containing 5 ml of the appropriate formulation. Bags were vacuum-sealed and incubated at 12° C. for up to 7 days until further analysis. Time zero samples were plated within 30 min after dipping.
Surviving Salmonella Typhimurium on chicken filets were counted as follows: a sealed bag was opened and to this was added 2 times the net weight sterile dilution fluid ([…] NaCl and 0.1% (w/v) bacteriological peptone). Duplicate filets were homogenized for 1 min. in a Bagmixer® 400 paddle labblender (Interscience, St Nom, France). 50 μl of the homogenates or dilutions thereof were plated on duplicate Salmonella chromogenic agar plates (CM1007) with cefsulodin, novobiocin supplement (SR0194) (Oxoid, Basingstoke, United Kingdom) using an Eddyjet type 1.23 spiral plater (IUL Instruments, Barcelona, Spain). Plates were incubated for 24-48 hours at 30° C. and then counted. Salmonella numbers were expressed as log10 colony forming units per ml homogenate.
The compositions of the formulations that were studied are shown in Table 2. ε-Polylysine and mono/di glycerides were dissolved in demineralised water and sterilized for 20 min at 120° C.

[2] = system: Escherichia coli serotype O157:H7 (ATCC 700728); test: Bioscreen growth rate in brain heart infusion broth (synergy study); type: cell-based
Procedure: (§1) The following cultures were used in a study: Escherichia coli (ATCC 8739), Escherichia coli serotype O157:H7 (ATCC 700728), Salmonella typhimurium (ATCC 13311) and Salmonella entiritidis (ATCC 13076). All cultures were transferred daily in screw-capped tubes containing 10 ml brain heart infusion broth. Cultures were incubated at 30° C. without agitation. Brain heart infusion broth was prepared with increasing amounts of the mono/di glyceride and polylysine. The concentration range for the caprylic (C8) mono/di glyceride was as from 0 to 0.18% in 10 0.02% steps, for the capric (C10) mono/di glyceride was as from 0 to 0.09% in 10 0.01% steps, for the lauric (C12)mono/di glyceride was as from 0 to 0.009% in 10 0.001% steps. Mono/di glycerides were combined with polylysine. The concentration range for the polylysine was as from 0 to 0.0675% in 10 0.0075% steps, resulting in 100 different media. The pH of the media was adjusted to 6.1-6.2 with 1 N HCl or 1 N NaOH. Media were prepared in 10 ml quantities and sterilized by filtration. 300 μl of each medium was transferred to a panel of a sterile Bioscreen® honeycomb 100 well plate. Well plates were inoculated with 5 μl of a culture that was grown overnight in brain heart infusion broth using a sterile 5 μl repeating dispenser. Growth rates were determined with a Bioscreen® that kinetically measures the development of turbidity by vertical photometry. The plates were incubated for 16-24 hours at 37° C., the optical density of the cultures was measured every 30 minutes at 420-580 nm using a wide band filter. The Bioscreen® measures at set time intervals the optical density of the cultures. […] The purpose of further data processing is to ascertain whether two […] act independently of each other or whether they stimulate each other in their inhibitory action (synergy) or cancel out each other inhibitory effect (antagonism). […] This implies that only the maximum specific growth rate (μmax) value and not the affinity (Ks) is affected. Therefore the specific growth rate in the presence of inhibitor can be written as: μ=μi.s/(Ks+s), where μi is the maximal specific growth rate in the presence of a inhibitor P. The relationship between μi and μmax and the concentration of the inhibitor P was describes using the Logistic Dose Response equation, which reads: μi/μmax=1/(1+(p/P0.5)^b) (Jungbauer, A. (2001). The logistic dose response function: a robust fitting function for transition phenomena in life sciences. J. Clinical Ligand Assay 24: 270-274). In this equation p represents the concentration of inhibitor P and p0.5 the concentration of P where p=0.5 μmax; μmax is the maximum specific growth rate that is the specific growth rate in the absence of inhibitor P, b is a dimensionless quantity, which determines the relationship between μi and p. Combining the Monod and Logistic Dose Response equation it can be written as: μ=μmax (s/Ks+s)/(1+(p/p0.5)^b). In batch culture where s is usually many times higher than Ks this equation reduces to μ=μmax/(1+(p/p0.5)^b). When comparing different organisms grown under the same conditions, or the same organism grown under different conditions, it is more meaningful to use relative growth rate, rather than absolute growth rates as standards of comparison. Relative growth rate (O) is the ratio of growth rate (μ) to maximum growth rate (μmax) i.e. O=μ/μmax. It can be seen that while μ and μmax have the dimensions of (time)^−1, their ratio O is dimensionless, i.e. a pure number. Similarly we can define the relative inhibitor concentration ε as p/p0.5. The reduced Monod and Logistic Dose Response equation can now be written as: O=1/(1+ε^b).

[3] = system: Salmonella typhimurium (ATCC 13311); test: as above; type: cell-based
Procedure: as §1

[4] = system: Salmonella entiritidis (ATCC 13076); test: as above; type: cell-based
Procedure: as §1

[5] = system: Escherichia coli (ATCC 8739); test: as above; type: cell-based
Procedure: as §1

[6] = system: gram-positive and -negative bacteria; details: Shima et al. (November 1984); cited from earlier work
[7] = 0.090% (w/w) C10-glycerol ester alone
[8] = 0.120% (w/w) C8-glycerol ester alone
[9] = 0.0225% (w/w) polylysine alone, C8 part of Table 1
[10] = 0.0225% (w/w) polylysine alone, C10 part of Table 1

glyceryl mono/di decanoate [C10-glycerol ester]
Salmonella Typhimurium on chicken filets ([1]; 0.05% (w/v) alone, 12° C., 0 days): 3.72 log10 colony forming units (CFU)/ml | Salmonella Typhimurium on chicken filets ([1]; 0.05% (w/v) alone, 12° C., 1 day): 3.98 log10 colony forming units (CFU)/ml | Salmonella Typhimurium on chicken filets ([1]; 0.05% (w/v) alone, 12° C., 2 days): 4.32 log10 colony forming units (CFU)/ml | Salmonella Typhimurium on chicken filets ([1]; 0.05% (w/v) alone, 12° C., 5 days): 6.0 log10 colony forming units (CFU)/ml | Salmonella Typhimurium on chicken filets ([1]; 0.05% (w/v) alone, 12° C., 6 days): 7.62 log10 colony forming units (CFU)/ml | Salmonella Typhimurium on chicken filets ([1]; 0.05% (w/v) alone, 12° C., 7 days): 7.85 log10 colony forming units (CFU)/ml | Observed Relative Growth Rate [2, 7]: 0.8685 | Observed Relative Growth Rate [3, 7]: 0.4613 | Observed Relative Growth Rate [4, 7]: 0.8960

glyceryl mono/di octanoate [C8-glycerol ester]
Salmonella Typhimurium on chicken filets ([1]; 0.2% (w/v) alone, 12° C., 0 days): 3.82 log10 colony forming units (CFU)/ml | Salmonella Typhimurium on chicken filets ([1]; 0.2% (w/v) alone, 12° C., 1 day): 3.81 log10 colony forming units (CFU)/ml | Salmonella Typhimurium on chicken filets ([1]; 0.2% (w/v) alone, 12° C., 2 days): 4.03 log10 colony forming units (CFU)/ml | Salmonella Typhimurium on chicken filets ([1]; 0.2% (w/v) alone, 12° C., 5 days): 6.41 log10 colony forming units (CFU)/ml | Salmonella Typhimurium on chicken filets ([1]; 0.2% (w/v) alone, 12° C., 6 days): 7.48 log10 colony forming units (CFU)/ml | Salmonella Typhimurium on chicken filets ([1]; 0.2% (w/v) alone, 12° C., 7 days): 7.39 log10 colony forming units (CFU)/ml | Observed Relative Growth Rate ([5]; 0.120% (w/w) C8-glycerol ester alone, broth pH 6.1-6.2, 37° C.): 1.0845 | Observed Relative Growth Rate [2, 8]: 0.9410 | Observed Relative Growth Rate [3, 8]: 0.4035 | Observed Relative Growth Rate [4, 8]: 0.5220

ε-Polylysine
concentrations effectively used against bacteria [6]: 1˜8 microgram per ml | Salmonella Typhimurium on chicken filets ([1]; 0.1% (w/v) alone, 12° C., 0 days): 3.04 log10 colony forming units (CFU)/ml | Salmonella Typhimurium on chicken filets ([1]; 0.1% (w/v) alone, 12° C., 1 day): 2.04 log10 colony forming units (CFU)/ml | Salmonella Typhimurium on chicken filets ([1]; 0.1% (w/v) alone, 12° C., 2 days): 2.15 log10 colony forming units (CFU)/ml | Salmonella Typhimurium on chicken filets ([1]; 0.1% (w/v) alone, 12° C., 5 days): 4.04 log10 colony forming units (CFU)/ml | Salmonella Typhimurium on chicken filets ([1]; 0.1% (w/v) alone, 12° C., 6 days): 4.26 log10 colony forming units (CFU)/ml | Salmonella Typhimurium on chicken filets ([1]; 0.1% (w/v) alone, 12° C., 7 days): 5.35 log10 colony forming units (CFU)/ml | killing or growth suppressing effect (in words) ([1]; individual components on chicken filets, 12° C.): reduced the cell numbers | reduction in numbers ([1]; single addition, after one day of incubation): 2 log10 | Observed Relative Growth Rate [5, 9]: 0.7570 | Observed Relative Growth Rate [2, 9]: 0.8315 | Observed Relative Growth Rate [2, 10]: 0.5850 | Observed Relative Growth Rate [3, 9]: 0.9653 | Observed Relative Growth Rate [3, 10]: 0.9910 | Observed Relative Growth Rate [4, 9]: 0.9945 | Observed Relative Growth Rate [4, 10]: 0.9600

From patent US20090082443A1, “Use of fatty acid esters of glycerol combined with polylysine against gram-negative bacteria” (PURAC BIOCHEM B.V., priority 2007, published 2009)
